The supplement of paper PMC10307832

Columns and labels:
Assay in all cases: relative viability (nuclei count vs DMSO), 5 days (fraction); higher = more cells survive
[1] = compound: C1/C(=C\C2=CC=CS2)/C(=O)/C(=C/C3=CC=CS3)/C1
Summary of the method: (§1)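 Acceptance criteria were a control CV below 25% and at least one doubling per plate. Lung cancer cell lines in 1536-well plates got five library-drug doses (not always all listed) √10 apart by pinning and were left 5 days with no medium change. Viability divides treated-well nuclei by vehicle-well nuclei and is the median across plates. Nuclei were counted by MetaXpress from 4× Hoechst images.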

[2] = compound: C1=CC(=CC=C1C2=CC(=C(S2)NC(=O)N)C(=O)N)F [TPCA-1]
Summary of the method: as §1

[3] = compound: C[C@]12O[C@H](C[C@]1(O)CO)n1c3ccccc3c3c4c(c5c6ccccc6n2c5c31)CNC4=O [Lestaurtinib]
Summary of the method: as §1

[4] = compound: C1=CC(=CC=C1C2=CC(=C(S2)NC(=O)N)C(=O)N)F [TPCA-1] + Cc1nc(Nc2ncc(C(=O)Nc3c(C)cccc3Cl)s2)cc(N2CCN(CCO)CC2)n1 [Dasatinib] (partner 0.075 µM)
Summary of the method: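 For relative viability, nuclei counts in treated wells were divided by those in vehicle wells. Lung cancer cell lines had been pin-tool dosed in 1536-well plates the day after seeding and cultured for 5 days, then fixed and stained in one step (final 0.05% Triton X-100, 1% formaldehyde, 1 ug/ml Hoechst) and imaged at 4×. Doses were one drug alone or a fixed anchor-drug dose plus five library-drug doses (not always all listed) in √10 steps, and values are duplicate-plate medians.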

Row | Cell Line | relative viability ([1]; 0.2 µM) | relative viability ([1]; 0.6325 µM) | relative viability ([1]; 2 µM) | relative viability ([1]; 6.325 µM) | relative viability ([1]; 20 µM) | relative viability ([2]; 0.04 µM) | relative viability ([2]; 0.1265 µM) | relative viability ([2]; 0.4 µM) | relative viability ([2]; 1.265 µM) | relative viability ([2]; 4 µM) | relative viability ([3]; 0.005 µM) | relative viability ([3]; 0.01581 µM) | relative viability ([3]; 0.05 µM) | relative viability ([3]; 0.1581 µM) | relative viability ([3]; 0.5 µM) | relative viability ([4]; first compound 0.04 µM) | relative viability ([4]; first compound 0.1265 µM) | relative viability ([4]; first compound 0.4 µM) | relative viability ([4]; first compound 1.265 µM) | relative viability ([4]; first compound 4 µM)
1 | 201T | 1.01 | 0.963 | 1.06 | 0.935 | 0.935 | 1.02 | 0.951 | 1 | 1.01 | 0.835 | 1.04 | 1.08 | 0.928 | 1.04 | 0.678 | 0.577 | 0.601 | 0.569 | 0.576 | 0.556
2 | A549 | 0.987 | 0.983 | 1.01 | 0.772 | 0.931 | 1.05 | 0.956 | 0.955 | 0.871 | 0.782 | 1.04 | 1 | 0.791 | 0.521 | 0.162 | – | – | – | – | –
3 | A-427 | 1.03 | 1.05 | 1.05 | 0.954 | 1.01 | 1.1 | 0.94 | 1.11 | 0.89 | 0.312 | 1.05 | 1.13 | 0.792 | 0.435 | 0.199 | 0.752 | 0.621 | 0.795 | 0.745 | 0.454
4 | ABC-1 | 0.87 | 1.03 | 1.13 | 0.842 | 0.888 | 1.02 | 0.798 | 0.982 | 0.771 | 0.638 | 0.976 | 1.01 | 0.79 | 0.735 | 0.327 | 0.485 | 0.493 | 0.614 | 0.495 | 0.381
5 | BEN | 0.935 | 1 | 1.11 | 0.848 | 0.934 | 1.01 | 0.873 | 1.05 | 1.08 | 0.774 | 0.993 | 1.11 | 0.888 | 0.8 | 0.278 | 0.294 | 0.283 | 0.335 | 0.391 | 0.267
6 | CAL-12T | 1.04 | 1.07 | 0.978 | 0.859 | 0.994 | 0.989 | 0.925 | 1.05 | 0.86 | 0.468 | 0.962 | 1.17 | 0.968 | 0.788 | 0.61 | 0.361 | 0.486 | 0.571 | 0.304 | 0.154
7 | COR-L23 | 1.03 | 1.05 | 1 | 0.865 | 0.947 | 1.03 | 0.924 | 0.968 | 0.986 | 0.857 | 1.08 | 1.13 | 0.633 | 0.829 | 0.166 | 0.532 | 0.434 | 0.54 | 0.422 | 0.42
8 | COR-L 105 | 0.989 | 0.895 | 0.956 | 0.71 | 0.836 | 1 | 0.9 | 0.99 | 0.806 | 0.615 | 0.897 | 0.978 | 0.808 | 0.572 | 0.313 | 0.307 | 0.361 | 0.345 | 0.225 | 0.204
